Measured values from patent US9399032B2, “Methods and compositions for treating degenerative and ischemic disorders” (The General Hospital Corporation, priority 2009, dated 2016).
Where a name gives a salt, the structure may show the parent alone.

Tested on: MCH58 fibroblasts
Experiment: Mass spectrometry-based metabolite profiling
Format: cell-based, human
Protocol: Metabolite profiling was performed on MCH58 fibroblasts following treatment with 50 μM meclizine or vehicle control for six hours, using methods similar to those previously described, see […] et al., Mol Syst Biol 4:214 (2008). […] For assessment of media metabolites, 500 μl of spent media or baseline media (prior to addition to cells) were sampled from the culture dish and immediately added to 500 μl of pre-cooled (-80° C.) methanol extraction solution (80% methanol, 20% H2O) to allow for rapid quenching of metabolism and extraction of metabolites. After 20 minutes at 4° C., samples were centrifuged at 14,000 g for 10 minutes. 50 μl of the supernatant was collected, re-diluted 1:20 with methanol extraction solution, and 100 μl of the final solution evaporated under nitrogen. Samples were reconstituted in 60 μl of HPLC-grade water and metabolite levels determined, as described below. For assessment of intracellular metabolites, media was aspirated from the above tissue culture plates and cells gently washed with 4 mL of PBS, to ensure complete removal of residual media metabolites. The PBS was removed and cellular metabolism quenched with immediate addition of 1 mL of pre-cooled (-80° C.) methanol extraction solution (80% methanol, 20% H2O). Cells were scraped, collected in extraction solution, vortexed and the samples centrifuged as described above for preparation of media samples. 100 μl of the supernatant was collected, re-diluted 1:1 with methanol extraction solution, and 100 μl of the final solution evaporated under nitrogen. Samples were reconstituted in 60 μl of HPLC-grade water and metabolites assessed. Six biological replicates were assessed for each group. Analyses of endogenous metabolites were performed using a liquid chromatography tandem mass spectrometry (LC-MS) system composed of a 4000 QTRAP triple quadrupole mass spectrometer (Applied Biosystems/SCIEX) coupled to three Agilent 1100 binary HPLC pumps (Agilent Technologies) and an HTS PAL autosampler (LEAP Technologies) equipped with three injection ports and a column selector valve. Three multiplexed chromatographic methods were configured for the analyses of each sample: LC method 1 used a Luna Phenyl-Hexyl column (Phenomenex) eluted with a linear gradient of water/acetonitrile/acetic acid (initial proportions 100/0/0.001, final proportions 10/90/0.001); […] LC method 3 used a Synergi Polar-RP column (Phenomenex) with reversed phase, gradient elution using 5% acetonitrile/5 mM ammonium acetate (mobile phase A) and 95% acetonitrile/5 mM ammonium acetate (mobile phase B). MS data were acquired using multiple reaction monitoring (MRM) in both the positive (LC method 1) and negative (LC methods 2 and 3) ion modes. During the development of this method, authentic reference compounds were used to determine LC retention times and to tune MRM transitions. Metabolite quantification was performed by integrating peak areas for specific MRM transitions using MultiQuant software (version 1.1; Applied Biosystems/SCIEX) and all integrated peaks were manually reviewed for quality. Extraction and quantification procedures were optimized prior to assessment of samples in this study to ensure measured intracellular and media metabolites were within the linear range of detection. Confirmation of the phosphoethanolamine peak was performed using an exogenous phosphoethanolamine standard (Sigma P0503).

[1] = intracellular, 50 μM, 6 h, over DMSO

`Cc1cccc(CN2CCN(C(c3ccccc3)c3ccc(Cl)cc3)CC2)c1` (racemic) [Meclizine, meclizine hydrochloride] was tested, and the “Fold Change P1_M0003_2′-deoxycytidine” value [1] was 1.13, the “Fold Change P1_M0007_Acetylcholine_p2_Met-146” value [1] was 1.06 and the “Fold Change P1_M0008_Alanine” value [1] was 1.40. For the same compound, the “Fold Change P1_M0009_Allantoin” value [1] was 0.91, the “Fold Change P1_M0012_Arginine” value [1] was 1.01 and the “Fold Change P1_M0013_Argininosuccinate” value [1] was 1.08. The “Fold Change P1_M0014_Asparagine” value [1] was 2.43, the “Fold Change P1_M0015_Aspartate” value [1] was 1.25 and the “Fold Change P1_M0016_Betaine” value [1] was 1.08. The “Fold Change P1_M0018_Carnosine” value [1] was 1.00, the “Fold Change P1_M0019_Choline” value [1] was 0.90 and the “Fold Change P1_M0022_Creatine” value [1] was 1.47. The “Fold Change P1_M0023_Creatinine” value [1] was 1.03, the “Fold Change P1_M0026_Cysteine” value [1] was 1.38 and the “Fold Change P1_M0027_Cytidine” value [1] was 1.28. The “Fold Change P1_M0030_DimethylGlycine” value [1] was 0.98, the “Fold Change P1_M0034_GlutamicAcid_p2” value [1] was 1.16 and the “Fold Change P1_M0035_Glutamine” value [1] was 1.05. For the same compound, the “Fold Change P1_M0038_Histidine” value [1] was 1.07, the “Fold Change P1_M0039_Homocysteine” value [1] was 0.95 and the “Fold Change P1_M0040_Homoserine” value [1] was 1.14. The “Fold Change P1_M0041_Hydroxyproline” value [1] was 1.17, the “Fold Change P1_M0042/M0044_Ile/Leu” value [1] was 0.91 and the “Fold Change P1_M0045_Lysine” value [1] was 1.08. The “Fold Change P1_M0046_Metanephrine_p2” value [1] was 0.87, the “Fold Change P1_M0047_Methionine” value [1] was 1.06 and the “Fold Change P1_M0050_Niacinamide” value [1] was 1.08. The “Fold Change P1_M0052_Ornithine” value [1] was 1.01, the “Fold Change P1_M0053_Phenylalanine” value [1] was 1.09 and the “Fold Change P1_M0054_Phosphoethanolamine” value [1] was 38.21. For the same compound, the “Fold Change P1_M0055_Proline” value [1] was 1.28, the “Fold Change P1_M0056_Pyridoxine” value [1] was 1.15 and the “Fold Change P1_M0058_Serine” value [1] was 1.11. For the same compound, the “Fold Change P1_M0062_Taurine” value [1] was 1.59, the “Fold Change P1_M0063_Threonine” value [1] was 1.14 and the “Fold Change P1_M0066_Tryptophan” value [1] was 1.13. The “Fold Change P1_M0067_Tyrosine” value [1] was 1.18, the “Fold Change P1_M0068/M0037_Valine/GuanidinoaceticAcid” value [1] was 0.94 and the “Fold Change P1_M0070_Xanthosine” value [1] was 1.21. For the same compound, the “Fold Change P1_M0142_Thymidine” value [1] was 0.97, the “Fold Change P1_M0200_L-NMMA” value [1] was 0.59 and the “Fold Change P1_M0201/M0202_ADMA/SDMA” value [1] was 0.99. For the same compound, the “Fold Change P1_M0204_Glycerol” value [1] was 0.94, the “Fold Change P1_NM001-M68_Valine-d8” value [1] was 1.01 and the “Fold Change P3_M0077_Acetoacetate” value [1] was 1.07. For the same compound, the “Fold Change P3_M0081_ADP_p2” value [1] was 1.43, the “Fold Change P3_M0082_AMP” value [1] was 1.31 and the “Fold Change P3_M0100_FolicAcid” value [1] was 0.63. The “Fold Change P3_M0102/M0103/M0196_F16DiP/F26DiP/G16DiP_D79_p2” value [1] was 1.32, the “Fold Change P3_M0104-M0107_F1P/F6P/G1P/G6P_D97” value [1] was 0.97 and the “Fold Change P3_M0109-M0110_Glucose/Galactose” value [1] was 0.94. For the same compound, the “Fold Change P3_M0111_GlutathioneOxidized” value [1] was 1.20, the “Fold Change P3_M0112_GlutathioneReduced” value [1] was 1.74 and the “Fold Change P3_M0113_Glyceraldehyde” value [1] was 1.00. The “Fold Change P3_M0114_Glycerol-3-P” value [1] was 1.21, the “Fold Change P3_M0121_Hypoxanthine” value [1] was 1.17 and the “Fold Change P3_M0126_LacticAcid” value [1] was 0.99. For the same compound, the “Fold Change P3_M0127_Lactose” value [1] was 0.42, the “Fold Change P3_M0129_NAD” value [1] was 1.11 and the “Fold Change P3_M0130_NADP” value [1] was 1.24. For the same compound, the “Fold Change P3_M0139_Sorbitol” value [1] was 0.92, the “Fold Change P3_M0140_Sucrose” value [1] was 1.18 and the “Fold Change P3_M0145/M0146_UDP-Glucose/UDP-Galactose_p2” value [1] was 1.33. For the same compound, the “Fold Change P3_M0147_UDP-GlucuronicAcid” value [1] was 1.45, the “Fold Change P3_M0149_Uracil” value [1] was 0.90 and the “Fold Change P3_M0150_Uridine” value [1] was 0.88. For the same compound, the “Fold Change P3_M0152_Xanthine” value [1] was 0.85, the “Fold Change P3_M0154_Methylmalonate” value [1] was 0.86 and the “Fold Change P3_M0164/M0175_FumaricAcid/MaleicAcid” value [1] was 1.07. The “Fold Change P3_M0195_3-PhosphoglycericAcid” value [1] was 1.45, the “Fold Change P3_NM002-M109_Glucose-13C6-d7” value [1] was 1.02 and the “Fold Change P3_NM003-M161_CitricAcid-d4” value [1] was 0.97. For the same compound, the “Fold Change P4_CAP193_Met-165” value [1] was 0.90, the “Fold Change P4_M0083_ATP_D159” value [1] was 1.27 and the “Fold Change P4_M0088_CMP” value [1] was 1.27. For the same compound, the “Fold Change P4_M0089_CTP” value [1] was 1.32, the “Fold Change P4_M0090_Cystathionine” value [1] was 1.53 and the “Fold Change P4_M0091_DCDP” value [1] was 1.09. The “Fold Change P4_M0092_DCMP” value [1] was 1.17, the “Fold Change P4_M0093_DCTP” value [1] was 1.02 and the “Fold Change P4_M0097_DUMP” value [1] was 0.88. The “Fold Change P4_M0100_FolicAcid” value [1] was 0.84, the “Fold Change P4_M0102/M0103/M0196_F16DiP/F26DiP/G16DiP_D79_p1” value [1] was 1.14 and the “Fold Change P4_M0102/M0103/M0196_F16DiP/F26DiP/G16DiP_D241” value [1] was 1.07. For the same compound, the “Fold Change P4_M0108_GDP_p1” value [1] was 1.38, the “Fold Change P4_M0116_GTP” value [1] was 1.24 and the “Fold Change P4_M0121_Hypoxanthine” value [1] was 0.76. The “Fold Change P4_M0123_Inosine_p2” value [1] was 1.18, the “Fold Change P4_M0126_LacticAcid” value [1] was 0.96 and the “Fold Change P4_M0137/M0138_Ribose-5-P/Ribulose-5-P_D97” value [1] was 1.07. For the same compound, the “Fold Change P4_M0140_Sucrose” value [1] was 1.10, the “Fold Change P4_M0144_UDP” value [1] was 1.21 and the “Fold Change P4_M0148_UMP_p1” value [1] was 0.83. For the same compound, the “Fold Change P4_M0151_UTP” value [1] was 1.09, the “Fold Change P4_M0157/M0156_Alpha-Keto-Glutarate/AdipicAcid” value [1] was 1.06 and the “Fold Change P4_M0158_AscorbicAcid” value [1] was 0.96. For the same compound, the “Fold Change P4_M0159_CDP” value [1] was 1.52, the “Fold Change P4_M0161/M0172_CitricAcid/IsocitricAcid” value [1] was 0.66 and the “Fold Change P4_M0162_Citrulline” value [1] was 0.87. The “Fold Change P4_M0163_DHAP” value [1] was 0.98, the “Fold Change P4_M0164/M0175_FumaricAcid/MaleicAcid” value [1] was 0.94 and the “Fold Change P4_M0165_GeranylPyrophosphate” value [1] was 1.18. For the same compound, the “Fold Change P4_M0166_Glucuronate” value [1] was 0.77, the “Fold Change P4_M0167_Glycerate-2-P_p1_Met-185” value [1] was 1.09 and the “Fold Change P4_M0168_GlycochenodeoxycholicAcid” value [1] was 0.83. For the same compound, the “Fold Change P4_M0169_GlycocholicAcid” value [1] was 0.68, the “Fold Change P4_M0170_HippuricAcid” value [1] was 0.86 and the “Fold Change P4_M0173_Kynurenine” value [1] was 0.96. The “Fold Change P4_M0176_MalicAcid” value [1] was 0.96, the “Fold Change P4_M0180_OH-PhenylPyruvate” value [1] was 0.86 and the “Fold Change P4_M0183_Oxaloacetate” value [1] was 0.92. The “Fold Change P4_M0184_PantothenicAcid” value [1] was 1.29, the “Fold Change P4_M0185_Pyridoxal-5-phosphate_p1” value [1] was 1.01 and the “Fold Change P4_M0187_SuccinicAcid” value [1] was 0.83. For the same compound, the “Fold Change P4_M0188_TaurochenodeoxycholicAcid” value [1] was 0.76, the “Fold Change P4_M0190_UricAcid” value [1] was 0.87 and the “Fold Change P4_M0191_Xanthosine-5′-monophosphate” value [1] was 1.75. For the same compound, the “Fold Change P4_M0198_AconiticAcid(CAP203)_D129” value [1] was 0.55, the “Fold Change P4_M0205_PhosphoTyrosine” value [1] was 1.23 and the “Fold Change P4_M0206_Acetyl-CoA_P404” value [1] was 1.22. The “Fold Change P4_M0207_Malonyl-CoA_p1” value [1] was 1.16, the “Fold Change P4_M0210_Pyruvate” value [1] was 1.08 and the “Fold Change P4_NM002-M109_Glucose-13C6-d7” value [1] was 1.15. The “Fold Change P4_NM003-M161_CitricAcid-d4_p1” value [1] was 1.02 and the “increase of intracellular phosphoethanolamine” value (six hours after treatment) was about 35 fold.
